Earlier results, collected in patent publication US9173850B2, “4-methylpyrazole formulations” (RAPTOR PHARMACEUTICALS INC., priority 2009, dated 2015).

Test system: ethanol intolerance
Conditions: doses below 10 mg/kg; subjects with reduced or absent ALDH activity who have consumed alcohol

Q: Which “Effectiveness in treating ethanol intolerance or symptoms of aldehyde accumulation” value does the source give for `Cc1cn[nH]c1` [Formulation 4-MP, 4-Methylpyrazole] here?
A: Its value is “effective”.
